Measured values as given in publication PMC12064818, “A general assay platform to study protein pharmacology using ligand-dependent structural dynamics” (Nature Communications, 2025).
Read-outs that look alike come from different tables or passages of the source.

Assays:
PKA = details: cited from earlier work
NLuc = molecular target: T1, NLuc (Oplophorus gracilirostris, UniProt Q9GV45, A31E/A60N/A81I/F95D/I117V/K70R/L54V/L99Q/M102K/N193R/P142E/Q151K/Q38R/Q45L/V71I/Y165I); assay type: biochemical; details: - ATP
T1 construct: His tag (inferred from IMAC purification); made in house; host or cells: E. coli
T1 sequence (Q9GV45 other isoform, or with tags, fused parts or gaps with the stated changes): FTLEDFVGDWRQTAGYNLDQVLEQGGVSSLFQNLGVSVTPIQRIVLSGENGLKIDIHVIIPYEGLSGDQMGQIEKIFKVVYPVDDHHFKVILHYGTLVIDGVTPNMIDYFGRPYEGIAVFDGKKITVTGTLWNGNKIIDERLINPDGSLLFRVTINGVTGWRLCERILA
Procedure, shortened: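 Luminescence was read 10 min after Nano-Glo reagent addition. Enzyme was 1 nM NLuc in PBS/0.05% IGEPAL buffer, with or without ATP.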

P. pyralis FLuc = P. pyralis FLuc (Photinus pyralis, UniProt P08659); test: FLuc enzymatic luminescence assay, P. pyralis FLuc; assay type: biochemical; details: FLuc enzymatic assay; for IC50: read-out: IC50 or SDR50 (mM) FLuc E
P. pyralis FLuc, sequence (P08659 whole entry): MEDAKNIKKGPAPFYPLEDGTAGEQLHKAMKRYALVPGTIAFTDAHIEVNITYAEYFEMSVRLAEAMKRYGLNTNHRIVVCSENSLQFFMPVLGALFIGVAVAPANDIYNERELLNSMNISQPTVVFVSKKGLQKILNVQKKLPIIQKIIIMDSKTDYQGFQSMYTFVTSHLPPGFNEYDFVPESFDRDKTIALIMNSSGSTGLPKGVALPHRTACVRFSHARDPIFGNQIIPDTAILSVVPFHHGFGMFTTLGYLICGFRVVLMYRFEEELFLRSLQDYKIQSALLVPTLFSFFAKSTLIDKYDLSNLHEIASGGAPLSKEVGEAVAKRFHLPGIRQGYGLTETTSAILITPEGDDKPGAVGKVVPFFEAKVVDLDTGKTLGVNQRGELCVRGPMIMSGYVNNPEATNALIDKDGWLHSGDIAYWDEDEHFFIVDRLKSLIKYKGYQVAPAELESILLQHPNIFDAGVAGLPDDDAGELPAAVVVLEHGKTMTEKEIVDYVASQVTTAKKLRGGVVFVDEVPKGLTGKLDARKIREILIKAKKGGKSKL
Procedure, shortened: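 Runs with and without 10 µM ATP: compounds were pre-incubated with FLuc (1–10 nM, PBS pH 7.4) at ambient temperature, light-protected, for 30–60 min. Luminescence was imaged 5 min after adding 10 µM D-luciferin (final). Inhibition was scaled between DMSO neutral and no-enzyme controls.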

FLuc-C-HiBiT = molecular target: T2, FLuc-C-HiBiT (Photinus pyralis, UniProt P08659); test: biochemical; details: enzyme activity, 10 uM ATP; read-out: IC50 or SDR50 (mM) / FLuc E
T2 construct: firefly luciferase with C-terminal HiBiT tag, E. coli expressed
T2 sequence (P08659 whole entry, looked up): as the sequence (P08659 whole entry) above

[1] = molecular target: FLuc-C-NLuc (firefly luciferase) (Photinus pyralis, UniProt P08659, form not given/L550V); test: SDR assay, FLuc-C-NLuc; details: - ATP
FLuc-C-NLuc (firefly luciferase), sequence (P08659 2-550 L550V, form open): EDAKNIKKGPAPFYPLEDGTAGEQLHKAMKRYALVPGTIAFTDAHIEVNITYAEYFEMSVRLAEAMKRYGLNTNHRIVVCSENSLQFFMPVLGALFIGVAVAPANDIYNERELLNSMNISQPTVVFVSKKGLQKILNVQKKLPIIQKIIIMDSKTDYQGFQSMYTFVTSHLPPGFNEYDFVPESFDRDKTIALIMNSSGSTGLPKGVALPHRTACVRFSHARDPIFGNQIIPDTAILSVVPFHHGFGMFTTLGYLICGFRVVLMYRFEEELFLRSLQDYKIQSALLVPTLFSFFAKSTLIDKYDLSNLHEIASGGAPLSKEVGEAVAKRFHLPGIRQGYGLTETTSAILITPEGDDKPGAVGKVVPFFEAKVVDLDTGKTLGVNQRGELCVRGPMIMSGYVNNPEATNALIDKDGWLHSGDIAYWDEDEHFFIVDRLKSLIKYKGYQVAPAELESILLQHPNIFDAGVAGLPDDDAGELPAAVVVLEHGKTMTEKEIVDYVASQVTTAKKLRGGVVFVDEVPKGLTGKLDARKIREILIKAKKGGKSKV

[2] = molecular target: FLuc-C-HiBiT (firefly luciferase) (Photinus pyralis, UniProt P08659, form not given/L550V); test: SDR assay, FLuc-C-HiBiT; details: for % Activity (max response, + ATP) / % Activity (max response, - ATP): SDR max. response, clade S; for % Activity (max response, - ATP) / pSDR50 (clade S): - ATP; for pSDR50 (clade S): dihydro-imidazo-oxazine (clade S)
FLuc-C-HiBiT (firefly luciferase), sequence (P08659 2-550 L550V, form open): as above

[3] = annotation yes/no for kinase library compound, source not given

Compound | Annotated PKA activity (PKA; [3]) | Efficacy (%) NLuc (- ATP) (NLuc) [%] | pIC50 or pSDR50 FLuc E (P. pyralis FLuc) | Efficacy (%) FLuc E (P. pyralis FLuc; Clade S follow-up) [%] | IC50 (P. pyralis FLuc) [mM] | IC50 (FLuc-C-HiBiT) [mM] | Efficacy (%) FLuc-C-NLuc SDR (-ATP) [1] [%] | % Activity (max response, + ATP) [2] [%] | % Activity (max response, - ATP) [2] [%] | pIC50 or pSDR50 FLuc E (P. pyralis FLuc; Clade S follow-up) | IC50 (P. pyralis FLuc; Clade S follow-up) [mM] | pSDR50 (clade S) [2] | Annotated PKA activity (PKA)
CCN1CCN(Cc2ccc(NC(=O)Nc3ccc(Oc4cc(NC)ncn4)cc3)cc2C(F)(F)F)CC1 [AST-487] | yes |  |  |  |  |  |  |  |  |  |  |  | 
C=CC(=O)Nc1cc2c(Nc3ccc(F)c(Cl)c3)ncnc2cc1OCCCN1CCOCC1 [Canertinib] | no |  |  |  |  |  |  |  |  |  |  |  | 
COc1cc2c(Oc3ccc(NC(=O)C4(C(=O)Nc5ccc(F)cc5)CC4)cc3F)ccnc2cc1OCCCN1CCOCC1 [Foretinib] | no |  |  |  |  |  |  |  |  |  |  |  | 
COc1cc2ncnc(Nc3ccc(F)c(Cl)c3)c2cc1OCCCN1CCOCC1 [Gefitinib] | no |  |  |  |  |  |  |  |  |  |  |  | 
Cc1ccc(NC(=O)c2ccc(CN3CCN(C)CC3)cc2)cc1Nc1nc(-c2cccnc2)cs1 [Masitinib] | no |  |  |  |  |  |  |  |  |  |  |  | 
Nc1ncccc1-c1nc2ccc(-c3ccccc3)nc2n1-c1ccc(C2(N)CCC2)cc1 [Miransertib] | no |  |  |  |  |  |  |  |  |  |  |  | 
O=C(NCc1cc(F)ccc1F)C1CCN(C(=O)c2ncn3c2COC(c2ccccc2)C3)CC1 (stereo not shown) [NCGC00449804-01] |  | 0.00 | 5.41 | -84.67 | 0.00393 | 0.00313 | 0.00 | 321.30 | 16.31 |  |  |  | 
O=C(NCc1ccncc1)C1CCN(C(=O)c2ncn3c2COC(c2ccc(F)cc2)C3)CC1 (stereo not shown) [NCGC00449833-01] |  | -20.01 |  | -87.47 |  | 0.0111 | 0.00 | 157.03 | 0.00 | 5.21 | 0.00623 |  | 
Cc1ccc(C2Cn3cnc(C(=O)N4CCC(C(=O)NCc5ccco5)CC4)c3CO2)cc1 (stereo not shown) [NCGC00449893-01] |  | 0.00 |  | -75.71 |  | 0.00881 | 0.00 | 104.01 | 0.00 | 5.01 | 0.00988 |  | 
O=C(Nc1ccccc1)C1CCN(C(=O)c2ncn3c2COC(c2ccccc2)C3)CC1 (stereo not shown) [NCGC00449901-01] |  | 0.00 |  | -101.51 |  | 0.00157 | 0.00 | 354.42 | 0.00 | 5.86 | 0.0014 |  | 
Cc1cccc(NC(=O)C2CCN(C(=O)c3ncn4c3COC(c3ccccc3)C4)CC2)c1 (stereo not shown) [NCGC00449902-01] |  | 0.00 |  | -97.06 |  | 0.00248 | 0.00 | 372.05 | 0.00 | 5.66 | 0.00221 |  | 
Cc1ccc(NC(=O)C2CCN(C(=O)c3ncn4c3COC(c3ccccc3)C4)CC2)cc1 (stereo not shown) [NCGC00449903-01] |  | 0.00 |  | -93.84 |  | 0.00176 | 0.00 | 343.11 | 0.00 | 5.61 | 0.00248 |  | 
Cc1cc(C)cc(NC(=O)C2CCN(C(=O)c3ncn4c3COC(c3ccccc3)C4)CC2)c1 (stereo not shown) [NCGC00449905-01] |  | 0.00 |  | -86.91 |  | 0.00313 | 0.00 | 375.38 | 0.00 | 5.46 | 0.0035 |  | 
CC(C)c1cccc(NC(=O)C2CCN(C(=O)c3ncn4c3COC(c3ccccc3)C4)CC2)c1 (stereo not shown) [NCGC00449908-01] |  | 0.00 |  | -95.10 |  | 0.00785 | 0.00 | 304.79 | 0.00 | 5.26 | 0.00555 |  | 
CC(C)c1ccc(NC(=O)C2CCN(C(=O)c3ncn4c3COC(c3ccccc3)C4)CC2)cc1 (stereo not shown) [NCGC00449909-01] |  | 0.00 |  | -93.68 |  | 0.00351 | 0.00 | 370.54 | 0.00 | 5.51 | 0.00312 |  | 
COc1ccc(NC(=O)C2CCN(C(=O)c3ncn4c3COC(c3ccccc3)C4)CC2)cc1 (stereo not shown) [NCGC00449910-01] |  | 0.00 |  | -79.86 |  | 0.00785 | 0.00 | 319.33 | 0.00 | 5.06 | 0.0088 |  | 
COc1ccc(NC(=O)C2CCN(C(=O)c3ncn4c3COC(c3ccccc3)C4)CC2)cc1OC (stereo not shown) [NCGC00449911-01] |  | 11.18 |  | -91.83 |  | 0.00351 | 0.00 | 240.56 | 15.50 | 5.51 | 0.00312 |  | 
CCOc1ccc(NC(=O)C2CCN(C(=O)c3ncn4c3COC(c3ccccc3)C4)CC2)cc1 (stereo not shown) [NCGC00449913-01] |  | -11.50 |  | -92.73 |  | 0.007 | 0.00 | 212.53 | 0.00 | 5.36 | 0.00441 |  | 
O=C(Nc1cccc(F)c1)C1CCN(C(=O)c2ncn3c2COC(c2ccccc2)C3)CC1 (stereo not shown) [NCGC00449914-01] |  | 0.00 |  | -105.74 |  | 0.000881 | 0.00 | 387.59 | 0.00 | 6.21 | 0.00062 |  | 
O=C(Nc1ccc(F)cc1)C1CCN(C(=O)c2ncn3c2COC(c2ccccc2)C3)CC1 (stereo not shown) [NCGC00449915-01] |  | 0.00 |  | -91.87 |  | 0.00176 | 0.00 | 357.60 | 0.00 | 5.91 | 0.00124 |  | 
O=C(Nc1ccc(F)c(F)c1)C1CCN(C(=O)c2ncn3c2COC(c2ccccc2)C3)CC1 (stereo not shown) [NCGC00449916-01] |  | 0.00 |  | -98.00 |  | 0.000989 | 0.00 | 236.10 | 8.48 | 6.11 | 0.00078 |  | 
O=C(Nc1ccc(Cl)cc1)C1CCN(C(=O)c2ncn3c2COC(c2ccccc2)C3)CC1 (stereo not shown) [NCGC00449917-01] |  | 0.00 |  | -91.81 |  | 0.00176 | 0.00 | 361.85 | 0.00 | 5.81 | 0.00157 |  | 
O=C(Nc1ccc(F)c(Cl)c1)C1CCN(C(=O)c2ncn3c2COC(c2ccccc2)C3)CC1 (stereo not shown) [NCGC00449918-01] |  | 0.00 |  | -99.81 |  | 0.000989 | 0.00 | 238.83 | 49.33 | 6.16 | 0.0007 | 4.95 | 
COc1ccc(NC(=O)C2CCN(C(=O)c3ncn4c3COC(c3ccccc3)C4)CC2)cc1Cl (stereo not shown) [NCGC00449919-01] |  | -11.50 |  | -103.24 |  | 0.000881 | -15.13 | 241.73 | 38.71 | 6.36 | 0.00044 | 4.85 | 
COc1ccc(C)cc1NC(=O)C1CCN(C(=O)c2ncn3c2COC(c2ccc(F)cc2)C3)CC1 (stereo not shown) [NCGC00449936-01] |  | 0.00 |  | -99.49 |  | 0.00989 | 0.00 | 128.83 | -5.78 | 5.06 | 0.0088 |  | 
CSc1cccc(Nc2ncc3cc(-c4c(Cl)cccc4Cl)c(=O)n(C)c3n2)c1 [PD-173955] | no |  |  |  |  |  |  |  |  |  |  |  | 
CC(C)n1nc(-c2cc3cc(O)ccc3[nH]2)c2c(N)ncnc21 [PP 242] |  |  |  |  |  |  |  |  |  |  |  |  | yes
Cc1cc(C)c(/C=C2\C(=O)Nc3ccccc32)[nH]1 [Semaxanib] | no |  |  |  |  |  |  |  |  |  |  |  | 
